Patent US20230085307A1, “PYRIDAZINONE COMPOUND AND HERBICIDE” (NISSAN CHEMICAL CORPORATION, priority 2019, published 2023)

Experiments:
[1] = test system: late watergrass; experiment: Test Example 1: herbicidal activity, application before weed generation under submerged conditions (Table 16, symbol A); type: in vivo, late watergrass (Echinochloa oryzicola); conditions: amount of applied herbicide 320 g/ha
In short: (§1)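 Alluvial soil was flooded to 4 cm depth, weed seeds were sown mixed and 2.5-leaf rice seedlings were transplanted. On sowing day, the compound's emulsion, diluted in water to a set dose, was applied to the water surface. Plants grew at 25–30 °C and were scored 0–5 after three weeks.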

[2] = test system: Japanese bulrush; experiment: Test Example 1: herbicidal activity, application before weed generation under submerged conditions (Table 16, symbol B); type: in vivo, Japanese bulrush (Schoenoplectus juncoides); conditions: amount of applied herbicide 320 g/ha
In short: as §1

[3] = test system: oval-leafed pondweed; experiment: Test Example 1: herbicidal activity, application before weed generation under submerged conditions (Table 16, symbol C); type: in vivo, oval-leafed pondweed (Monochoria vaginalis); conditions: amount of applied herbicide 320 g/ha
In short: as §1

[4] = test system: barnyard grass; experiment: Test Example 3: herbicidal effect by foliage application, Wagner pot (Table 18, symbol H); type: in vivo, barnyard grass (Echinochloa crus-galli); conditions: 320 g/ha
In short: (§2)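 Plants were sown in alluvial soil held under 0.1–0.5 cm standing water and grown 14 days in a greenhouse at 25–30 °C. An emulsifiable formulation, water-diluted to the set dose, was then sprayed onto the foliage, and effects were scored three weeks later using previously defined criteria.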

[5] = test system: Chinese sprangletop; experiment: Test Example 3: herbicidal effect by foliage application, Wagner pot (Table 18, symbol D); type: in vivo, chinese sprangletop (Leptochloa chinensis); conditions: 320 g/ha
In short: as §2

[6] = test system: rice flat sedge; experiment: Test Example 3: herbicidal effect by foliage application, Wagner pot (Table 18, symbol E); type: in vivo, rice flat sedge (Cyperus iria); conditions: 320 g/ha
In short: as §2

[7] = test system: southern crabgrass; experiment: Test Example 4: herbicidal effect by soil treatment (Table 19, symbol F); type: in vivo, southern crabgrass (Digitaria ciliaris); conditions: amount of applied herbicide 320 g/ha
In short: (§3)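 Step 1: sow seeds in sterilized diluvial soil, cover ~1.5 cm. Step 2: spray diluted emulsion onto soil surface at predetermined rate. Step 3: greenhouse, 25–30° C, three weeks. Step 4: grade effect on each plant by earlier criteria.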

[8] = test system: green foxtail; experiment: Test Example 4: herbicidal effect by soil treatment (Table 19, symbol G); type: in vivo, green foxtail (Setaria viridis); conditions: amount of applied herbicide 320 g/ha
In short: as §3

[9] = test system: barnyard grass; experiment: Test Example 4: herbicidal effect by soil treatment (Table 19, symbol H); type: in vivo, barnyard grass (Echinochloa crus-galli); conditions: amount of applied herbicide 320 g/ha
In short: as §3

[10] = test system: wild oat; experiment: Test Example 4: herbicidal effect by soil treatment (Table 19, symbol I); type: in vivo, wild oat (Avena fatua); conditions: amount of applied herbicide 320 g/ha
In short: as §3

[11] = test system: blackgrass; experiment: Test Example 4: herbicidal effect by soil treatment (Table 19, symbol J); type: in vivo, blackgrass (Alopecurus myosuroides); conditions: amount of applied herbicide 320 g/ha
In short: as §3

[12] = test system: Italian ryegrass; experiment: Test Example 4: herbicidal effect by soil treatment (Table 19, symbol K); type: in vivo, Italian ryegrass (Lolium multiflorum); conditions: amount of applied herbicide 320 g/ha
In short: as §3

[13] = test system: windgrass; experiment: Test Example 4: herbicidal effect by soil treatment (Table 19, symbol L); type: in vivo, windgrass (Apera spica-venti); conditions: amount of applied herbicide 320 g/ha
In short: as §3

[14] = test system: velvetleaf; experiment: Test Example 4: herbicidal effect by soil treatment (Table 19, symbol M); type: in vivo, velvetleaf (Abutilon theophrasti); conditions: amount of applied herbicide 320 g/ha
In short: as §3

[15] = test system: redroot pigweed; experiment: Test Example 4: herbicidal effect by soil treatment (Table 19, symbol N); type: in vivo, redroot pigweed (Amaranthus retroflexus); conditions: amount of applied herbicide 320 g/ha
In short: as §3

[16] = test system: lambsquarters; experiment: Test Example 4: herbicidal effect by soil treatment (Table 19, symbol O); type: in vivo, lambsquarters (Chenopodium album); conditions: amount of applied herbicide 320 g/ha
In short: as §3

[17] = test system: chickweed; experiment: Test Example 4: herbicidal effect by soil treatment (Table 19, symbol P); type: in vivo, common chickweed (Stellaria media); conditions: amount of applied herbicide 320 g/ha
In short: as §3

[18] = test system: false cleavers; experiment: Test Example 4: herbicidal effect by soil treatment (Table 19, symbol Q); type: in vivo, false cleavers (Galium spurium); conditions: amount of applied herbicide 320 g/ha
In short: as §3

[19] = test system: persian speedwell; experiment: Test Example 4: herbicidal effect by soil treatment (Table 19, symbol R); type: in vivo, Persian speedwell (Veronica persica); conditions: amount of applied herbicide 320 g/ha
In short: as §3

[20] = test system: southern crabgrass; experiment: Test Example 5: herbicidal effect by foliage application, plastic box (Table 20, symbol F); type: in vivo, southern crabgrass (Digitaria ciliaris); conditions: foliage application, 320 g/ha, three weeks after application
In short: (§4)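 Foliar spray test: emulsion formulation diluted in water to a set application rate, sprayed onto 14-day-old plants raised in diluvial soil at 25° C to 30° C under glass. Both herbicidal effect and crop effect rated visually three weeks later.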

[21] = test system: green foxtail; experiment: Test Example 5: herbicidal effect by foliage application, plastic box (Table 20, symbol G); type: in vivo, green foxtail (Setaria viridis); conditions: foliage application, 320 g/ha, three weeks after application
In short: as §4

[22] = test system: barnyard grass; experiment: Test Example 5: herbicidal effect by foliage application, plastic box (Table 20, symbol H); type: in vivo, barnyard grass (Echinochloa crus-galli); conditions: foliage application, 320 g/ha, three weeks after application
In short: as §4

[23] = test system: wild oat; experiment: Test Example 5: herbicidal effect by foliage application, plastic box (Table 20, symbol I); type: in vivo, wild oat (Avena fatua); conditions: foliage application, 320 g/ha, three weeks after application
In short: as §4

[24] = test system: blackgrass; experiment: Test Example 5: herbicidal effect by foliage application, plastic box (Table 20, symbol J); type: in vivo, blackgrass (Alopecurus myosuroides); conditions: foliage application, 320 g/ha, three weeks after application
In short: as §4

[25] = test system: Italian ryegrass; experiment: Test Example 5: herbicidal effect by foliage application, plastic box (Table 20, symbol K); type: in vivo, Italian ryegrass (Lolium multiflorum); conditions: foliage application, 320 g/ha, three weeks after application
In short: as §4

[26] = test system: windgrass; experiment: Test Example 5: herbicidal effect by foliage application, plastic box (Table 20, symbol L); type: in vivo, windgrass (Apera spica-venti); conditions: foliage application, 320 g/ha, three weeks after application
In short: as §4

[27] = test system: velvetleaf; experiment: Test Example 5: herbicidal effect by foliage application, plastic box (Table 20, symbol M); type: in vivo, velvetleaf (Abutilon theophrasti); conditions: foliage application, 320 g/ha, three weeks after application
In short: as §4

[28] = test system: redroot pigweed; experiment: Test Example 5: herbicidal effect by foliage application, plastic box (Table 20, symbol N); type: in vivo, redroot pigweed (Amaranthus retroflexus); conditions: foliage application, 320 g/ha, three weeks after application
In short: as §4

[29] = test system: lambsquarters; experiment: Test Example 5: herbicidal effect by foliage application, plastic box (Table 20, symbol O); type: in vivo, lambsquarters (Chenopodium album); conditions: foliage application, 320 g/ha, three weeks after application
In short: as §4

[30] = test system: chickweed; experiment: Test Example 5: herbicidal effect by foliage application, plastic box (Table 20, symbol P); type: in vivo, common chickweed (Stellaria media); conditions: foliage application, 320 g/ha, three weeks after application
In short: as §4

[31] = test system: false cleavers; experiment: Test Example 5: herbicidal effect by foliage application, plastic box (Table 20, symbol Q); type: in vivo, false cleavers (Galium spurium); conditions: foliage application, 320 g/ha, three weeks after application
In short: as §4

[32] = test system: persian speedwell; experiment: Test Example 5: herbicidal effect by foliage application, plastic box (Table 20, symbol R); type: in vivo, Persian speedwell (Veronica persica); conditions: foliage application, 320 g/ha, three weeks after application
In short: as §4

Compound: COc1ccc2c(-c3c(O)c(C)nn(C)c3=O)c(-c3ccc(SC)cc3)sc2c1 [3-074]
- Herbicidal effect, A: late watergrass [1]: 0 (Herbicidal rate of 5% or less (almost no effect))
- Herbicidal effect, B: Japanese bulrush [2]: 2 (Herbicidal rate of 20% or more and less than 40%)
- Herbicidal effect, C: oval-leafed pondweed [3]: 0 (Herbicidal rate of 5% or less (almost no effect))
- herbicidal effect on barnyard grass (H) [4]: 4 (Herbicidal rate of 70% or more and less than 90%)
- herbicidal effect on Chinese sprangletop (D) [5]: 3 (Herbicidal rate of 40% or more and less than 70%)
- herbicidal effect on rice flat sedge (E) [6]: 5 (Herbicidal rate of 90% or more (almost completely withered))
- F: southern crabgrass, herbicidal effect grade [7]: 0 (Herbicidal rate of 5% or less (almost no effect))
- G: green foxtail, herbicidal effect grade [8]: 0 (Herbicidal rate of 5% or less (almost no effect))
- H: barnyard grass, herbicidal effect grade [9]: 0 (Herbicidal rate of 5% or less (almost no effect))
- I: wild oat, herbicidal effect grade [10]: 0 (Herbicidal rate of 5% or less (almost no effect))
- J: blackgrass, herbicidal effect grade [11]: 0 (Herbicidal rate of 5% or less (almost no effect))
- K: Italian ryegrass, herbicidal effect grade [12]: 0 (Herbicidal rate of 5% or less (almost no effect))
- L: windgrass, herbicidal effect grade [13]: 0 (Herbicidal rate of 5% or less (almost no effect))
- M: velvetleaf, herbicidal effect grade [14]: 0 (Herbicidal rate of 5% or less (almost no effect))
- N: redroot pigweed, herbicidal effect grade [15]: 5 (Herbicidal rate of 90% or more (almost completely withered))
- O: lambsquarters, herbicidal effect grade [16]: 5 (Herbicidal rate of 90% or more (almost completely withered))
- P: chickweed, herbicidal effect grade [17]: 3 (Herbicidal rate of 40% or more and less than 70%)
- Q: false cleavers, herbicidal effect grade [18]: 0 (Herbicidal rate of 5% or less (almost no effect))
- R: persian speedwell, herbicidal effect grade [19]: 5 (Herbicidal rate of 90% or more (almost completely withered))
- F: southern crabgrass, herbicidal effect grade [20]: 2 (Herbicidal rate of 20% or more and less than 40%)
- G: green foxtail, herbicidal effect grade [21]: 3 (Herbicidal rate of 40% or more and less than 70%)
- H: barnyard grass, herbicidal effect grade [22]: 0 (Herbicidal rate of 5% or less (almost no effect))
- I: wild oat, herbicidal effect grade [23]: 0 (Herbicidal rate of 5% or less (almost no effect))
- J: blackgrass, herbicidal effect grade [24]: 0 (Herbicidal rate of 5% or less (almost no effect))
- K: Italian ryegrass, herbicidal effect grade [25]: 0 (Herbicidal rate of 5% or less (almost no effect))
- L: windgrass, herbicidal effect grade [26]: 3 (Herbicidal rate of 40% or more and less than 70%)
- M: velvetleaf, herbicidal effect grade [27]: 4 (Herbicidal rate of 70% or more and less than 90%)
- N: redroot pigweed, herbicidal effect grade [28]: 5 (Herbicidal rate of 90% or more (almost completely withered))
- O: lambsquarters, herbicidal effect grade [29]: 5 (Herbicidal rate of 90% or more (almost completely withered))
- P: chickweed, herbicidal effect grade [30]: 5 (Herbicidal rate of 90% or more (almost completely withered))
- Q: false cleavers, herbicidal effect grade [31]: 5 (Herbicidal rate of 90% or more (almost completely withered))
- R: persian speedwell, herbicidal effect grade [32]: 5 (Herbicidal rate of 90% or more (almost completely withered))
